# Laboratory results reported in patent US20250353819A1, “ARYL HYDANTOIN COMPOUNDS AND METHODS OF USE” (priority 2022, published 2025).
# Like-named read-outs stand apart in the source and are kept apart here.
# What was measured:
# S. mansoni [1] = details: cited from earlier work
# androgen-receptor = test: DHT-induced (KLK3, FKBP5) and DHT-repressed (ZFP36L1) transcripts in LAPC4 cells; type: cell-based; details: Compound IE up to 10 μM
# S. mansoni [2] = test: Antischistosomal screen in S. mansoni-infected mice; type: in vivo, Schistosoma mansoni; details: for Worm burden reduction (WBR): single oral dose Ro 13-3978 100 mg/kg, praziquantel 400 mg/kg; for ED50: Schistosoma mansoni
# Description: Antischistosomal Screen. […] As described by Lombardo et al. (2019), cercariae of S. mansoni were obtained from infected Biomphalaria glabrata. By way of example, NMRI mice were infected subcutaneously with approximately 100 S. mansoni cercariae. […] Untreated mice (n=8) served as controls. At 21 d post-treatment, animals were killed by the CO2 method and dissected. Worms were removed by picking, then sexed and counted.
# [3] = Kinetic solubility (nephelometry); type: physicochemical
# Procedure: Kinetic Solubility. Compounds in DMSO (10 mg/mL) were diluted into either pH 6.5 phosphate buffer or 0.01 M HCl (approx. pH 2.0) with the final DMSO concentration being 1%. Samples were then analysed via nephelometry to determine a solubility range (Bevan and Lloyd, 2000).
# [4] = Mouse exposure / pharmacokinetic studies; type: in vivo, mice; details: male, Swiss outbred, mouse, in vivo
# LAPC4 cells = test: Androgen-dependent cell-based assay (DHT, LAPC4); details: Homo sapiens
# Procedure: Androgen-Dependent Cell-based Assay. As described by Jones and Diamond (2008), LAPC4 cells were cultured in phenol red free RPMI 1640 media supplemented with antibiotics and 10% FBS. […] […] Mean-effect plots (log[compound] vs. log[fractional effect]) were generated to determine the IC50 values for each test compound or combinations of test compounds at constant ratios.
# [5] = In vitro metabolic stability, human liver microsomes; type: in vitro ADME
# Procedure: (§1) In Vitro Metabolic Stability. As described by Charman et al. (2020), metabolic stability assays were performed by incubating test compounds in liver microsomes at 37° C. and 0.4 mg/mL protein concentration. The metabolic reaction was initiated by the addition of an NADPH-regenerating system and quenched at various time points over a 60 min incubation period by the addition of acetonitrile containing diazepam as internal standard. Control samples (containing no NADPH) were included (and quenched at 2, 30 and 60 min) to monitor for potential degradation in the absence of cofactor.
# [6] = In vitro metabolic stability, mouse liver microsomes; type: in vitro ADME
# Procedure: as §1
# [7] = Partition coefficient (Log D) by gradient HPLC; type: physicochemical
# Description: Partition Coefficient. Partition coefficient values (Log D) of the test compounds were estimated by correlation of their chromatographic retention properties against the characteristics of a series of standard compounds with known partition coefficient values using gradient HPLC (modification of a method reported by Lombardo et al., 2001).
# [8] = pH 7.4, chromatographic estimate, read-out: gLogD7.4
# [9] = DHT-induced, androgen-dependent LAPC4 prostate cancer cell line, read-out: LAPC4 IC50
# [10] = adult stage, single oral dose, mouse model, read-out: S. mansoni ED50, adult
# [11] = juvenile stage, single oral dose, mouse model, read-out: S. mansoni ED50, juvenile
SMILES,"chromatographic logD [7, 8]",Sol2.0 ([3]; pH 2),Sol6.5 ([3]; pH 6.5),"AUC(0-t) ([4]; po, 100 mg/kg) [µg·h/mL]","Cmax ([4]; po, 100 mg/kg) [ng/mL]",IC50 (LAPC4 cells; [9]) [µM],ED50 (S. mansoni [2]; [10]) [mg/kg],ED50 (S. mansoni [2]; [11]) [mg/kg],"microsomal CLint ([5]; human, microsomes) [µL/min/mg]","microsomal CLint ([6]; mouse, microsomes) [µL/min/mg]",other results
"CC1(C)NC(=O)N(c2ccc([N+](=O)[O-])c(C(F)(F)F)c2)C1=O [nilutamide, reference compound]",–,–,–,–,–,–,–,–,–,–,"antischistosomal activity (S. mansoni [1]; Keiser et al., 2010): very weak; levels of DHT-induced (KLK3, FKBP5) and DHT-repressed (ZFP36L1) transcripts (androgen-receptor): inhibited the DHT-induced increase of KLK3 and FKBP5 and prevented the repression of ZFP36L1"
"O=C(C1CCCCC1)N1CC(=O)N2CCc3ccccc3C2C1 (stereo not drawn) [Praziquantel, praziquantel, reference compound]",–,–,–,–,–,–,–,–,–,–,"activity against juvenile stages of the parasite (S. mansoni [1]; schistosome mouse model, literature): no significant activity; Worm burden reduction (WBR) (S. mansoni [2]; NOD-SCID (Prkdc^scid) mice): 83%; Worm burden reduction (WBR) (S. mansoni [2]; NOD-SCID (Prkdc^scid) mice, listed as Praziquantel (PZQ)): 83%; Worm burden reduction (WBR) (S. mansoni [2]; outbred NMRI mice): 96%"
"CC1(C(F)(F)F)NC(=O)N(c2ccc(F)c(C(F)(F)F)c2)C1=O (stereo not drawn) [IA, 3-(4-Fluoro-3-(trifluoromethyl)phenyl)-5-methyl-5-(trifluoromethyl)imidazolidine-2,4-dione]",3.5,–,–,–,–,–,–,–,–,–,"Sol2.0 ([3]; kinetic solubility, 0.01 M HCl (approx. pH 2.0)): 25-50/25-50 μg/mL; Sol6.5 ([3]; kinetic solubility, pH 6.5 phosphate buffer): 25-50/25-50 μg/mL; AUC(0-t) ([4]; 100 mg/kg PO in mice, read-out: AUC0-last): 966 µg·h/mL; Cmax ([4]; 100 mg/kg PO in mice, read-out: Cmax): 28000 ng/mL; IC50 (LAPC4 cells; LAPC4, read-out: LAPC4 IC50): 5.2 µM; ED50 (S. mansoni [2]; po, read-out: S. mansoni ED50, adult): 14 mg/kg; ED50 (S. mansoni [2]; po, read-out: S. mansoni ED50, juvenile): 70 mg/kg; microsomal CLint ([5]; human liver microsomes, read-out: h CLint): < 7 µL/min/mg; microsomal CLint ([6]; mouse liver microsomes, read-out: m CLint): < 7 µL/min/mg"
"[2H]C([2H])([2H])C1(C([2H])([2H])[2H])NC(=O)N(c2ccc(F)c(C(F)(F)F)c2)C1=O [IB, 3-(4-Fluoro-3-(trifluoromethyl)phenyl)-5,5-bis(methyl-d3)imidazolidine-2,4-dione]",2.7,>100/>100 μg/mL,>100/>100 μg/mL,1820,43000,13,7.3,73,< 7,< 7,–
"CC1(C(F)F)NC(=O)N(c2ccc(F)c(C(F)(F)F)c2)C1=O (stereo not drawn) [ID, 5-(Difluoromethyl)-3-(4-fluoro-3-(trifluoromethyl)phenyl)-5-methylimidazolidine-2,4-dione]",–,50-100/50-100 μg/mL,50-100/50-100 μg/mL,1650,42000,4.2,9,88,< 7,< 7,chromatographic logD ([7]; pH 7.4): 3.2
